Results: article PMC9571063 (Molecules, 2022)

Key:
Assay in all cases: KINOMEscan
Assay type in all cases: binding
Settings in all cases: read-out: Percent Control
CAMKK2 = target: T1, CAMKK2 (Homo sapiens, UniProt Q96RR4)
T1 construct: purchased Eurofins DiscoverX KINOMEscan (scanMAX 468)

IKK-beta = target: T2, IKK-beta (Homo sapiens, UniProt O14920)
T2 construct: purchased Eurofins DiscoverX KINOMEscan (scanMAX 468)

CAMK4 = target: T3, CAMK4 (Homo sapiens, UniProt Q16566)
T3 construct: purchased Eurofins DiscoverX KINOMEscan (scanMAX 468)

IKK-epsilon = target: T4, IKK-epsilon (Homo sapiens, UniProt Q14164)
T4 construct: purchased Eurofins DiscoverX KINOMEscan (scanMAX 468)

QSK = target: T5, QSK (Homo sapiens, UniProt Q9Y2K2)
T5 construct: purchased Eurofins DiscoverX KINOMEscan (scanMAX 468)

CSK = target: T6, CSK (Homo sapiens, UniProt P41240)
T6 construct: purchased Eurofins DiscoverX KINOMEscan (scanMAX 468)

[1] = target: T7, RPS6KA5(Kin.Dom.2-C-terminal) (Homo sapiens, UniProt O75582)
T7 construct: RPS6KA5(Kin.Dom.2-C-terminal); purchased Eurofins DiscoverX KINOMEscan (scanMAX 468)

CAMK1G = target: T8, CAMK1G (Homo sapiens, UniProt Q96NX5)
T8 construct: purchased Eurofins DiscoverX KINOMEscan (scanMAX 468)

MYLK4 = target: T9, MYLK4 (Homo sapiens, UniProt Q86YV6)
T9 construct: purchased Eurofins DiscoverX KINOMEscan (scanMAX 468)

YANK1 = target: T10, YANK1 (Homo sapiens, UniProt Q8WU08)
T10 construct: purchased Eurofins (KINOMEscan, DiscoverX)

STK16 = target: T11, STK16 (Homo sapiens, UniProt O75716)
T11 construct: purchased Eurofins DiscoverX KINOMEscan (scanMAX 468)

MET = target: T12, MET (Homo sapiens, UniProt P08581)
T12 construct: purchased Eurofins DiscoverX KINOMEscan (scanMAX 468)

BIKE = target: T13, BIKE (Homo sapiens, UniProt Q9NSY1)
T13 construct: purchased Eurofins DiscoverX KINOMEscan (scanMAX 468)

SRMS = target: T14, SRMS (Homo sapiens, UniProt Q9H3Y6)
T14 construct: purchased Eurofins DiscoverX KINOMEscan (scanMAX 468)

BRSK1 = target: T15, BRSK1 (Homo sapiens, UniProt Q8TDC3)
T15 construct: purchased Eurofins DiscoverX KINOMEscan (scanMAX 468)

AAK1 = target: T16, AAK1 (Homo sapiens, UniProt Q2M2I8)
T16 construct: purchased Eurofins DiscoverX KINOMEscan (scanMAX 468)

PRKCI = target: T17, PRKCI (Homo sapiens, UniProt P41743)
T17 construct: purchased Eurofins DiscoverX KINOMEscan (scanMAX 468)

[2] = target: T18, ABL1(F317I)-nonphosphorylated (Homo sapiens, UniProt P00519, F317I)
T18 construct: purchased Eurofins DiscoverX KINOMEscan (scanMAX 468)

GSK3A = target: T19, GSK3A (Homo sapiens, UniProt P49840)
T19 construct: purchased Eurofins DiscoverX KINOMEscan (scanMAX 468)

HIPK3 = target: T20, HIPK3 (Homo sapiens, UniProt Q9H422)
T20 construct: purchased Eurofins DiscoverX KINOMEscan (scanMAX 468)

ERBB2 = target: T21, ERBB2 (Homo sapiens, UniProt P04626)
T21 construct: purchased Eurofins DiscoverX KINOMEscan (scanMAX 468)

MAST1 = target: T22, MAST1 (Homo sapiens, UniProt Q9Y2H9)
T22 construct: purchased Eurofins DiscoverX KINOMEscan (scanMAX 468)

IGF1R = target: T23, IGF1R (Homo sapiens, UniProt P08069)
T23 construct: purchased Eurofins DiscoverX KINOMEscan (scanMAX 468)

CDK4-cyclinD1 = target: T24, CDK4-cyclinD1 (Homo sapiens, UniProt P11802)
T24 construct: purchased Eurofins DiscoverX KINOMEscan (scanMAX 468)

CSNK1A1L = target: T25, CSNK1A1L (Homo sapiens, UniProt Q8N752)
T25 construct: purchased Eurofins DiscoverX KINOMEscan (scanMAX 468)

GCN2(Kin.Dom.2,S808G) = target: T26, GCN2(Kin.Dom.2,S808G) (Homo sapiens, UniProt Q9P2K8, S808G)
T26 construct: GCN2(Kin.Dom.2,S808G); purchased Eurofins DiscoverX KINOMEscan (scanMAX 468)

MAP3K4 = target: T27, MAP3K4 (Homo sapiens, UniProt Q9Y6R4)
T27 construct: purchased Eurofins DiscoverX KINOMEscan (scanMAX 468)

HUNK = target: T28, HUNK (Homo sapiens, UniProt P57058)
T28 construct: purchased Eurofins DiscoverX KINOMEscan (scanMAX 468)

MYLK2 = target: T29, MYLK2 (Homo sapiens, UniProt Q9H1R3)
T29 construct: purchased Eurofins DiscoverX KINOMEscan (scanMAX 468)

TAOK2 = target: T30, TAOK2 (Homo sapiens, UniProt Q9UL54)
T30 construct: purchased Eurofins DiscoverX KINOMEscan (scanMAX 468)

BLK = target: T31, BLK (Homo sapiens, UniProt P51451)
T31 construct: purchased Eurofins DiscoverX KINOMEscan (scanMAX 468)

SRPK3 = target: T32, SRPK3 (Homo sapiens, UniProt Q9UPE1)
T32 construct: purchased Eurofins DiscoverX KINOMEscan (scanMAX 468)

SYK = target: T33, SYK (Homo sapiens, UniProt P43405)
T33 construct: purchased Eurofins DiscoverX KINOMEscan (scanMAX 468)

RET(M918T) = target: T34, RET(M918T) (Homo sapiens, UniProt P07949, M918T)
T34 construct: purchased Eurofins DiscoverX KINOMEscan (scanMAX 468)

PRKD3 = target: T35, PRKD3 (Homo sapiens, UniProt O94806)
T35 construct: purchased Eurofins DiscoverX KINOMEscan (scanMAX 468)

FYN = target: T36, FYN (Homo sapiens, UniProt P06241)
T36 construct: purchased Eurofins DiscoverX KINOMEscan (scanMAX 468)

[3] = target: T37, JAK2(JH1domain-catalytic) (Homo sapiens, UniProt O60674)
T37 construct: JAK2(JH1domain-catalytic); purchased Eurofins DiscoverX KINOMEscan (scanMAX 468)

EGFR = target: T38, EGFR (Homo sapiens, UniProt P00533)
T38 construct: purchased Eurofins DiscoverX KINOMEscan (scanMAX 468)

CDK7 = target: T39, CDK7 (Homo sapiens, UniProt P50613)
T39 construct: purchased Eurofins DiscoverX KINOMEscan (scanMAX 468)

DAPK2 = target: T40, DAPK2 (Homo sapiens, UniProt Q9UIK4)
T40 construct: purchased Eurofins DiscoverX KINOMEscan (scanMAX 468)

MAPKAPK5 = target: T41, MAPKAPK5 (Homo sapiens, UniProt Q8IW41)
T41 construct: purchased Eurofins DiscoverX KINOMEscan (scanMAX 468)

TAK1 = target: T42, TAK1 (Homo sapiens, UniProt O43318)
T42 construct: purchased Eurofins DiscoverX KINOMEscan (scanMAX 468)
T42 sequence (O43318 whole entry): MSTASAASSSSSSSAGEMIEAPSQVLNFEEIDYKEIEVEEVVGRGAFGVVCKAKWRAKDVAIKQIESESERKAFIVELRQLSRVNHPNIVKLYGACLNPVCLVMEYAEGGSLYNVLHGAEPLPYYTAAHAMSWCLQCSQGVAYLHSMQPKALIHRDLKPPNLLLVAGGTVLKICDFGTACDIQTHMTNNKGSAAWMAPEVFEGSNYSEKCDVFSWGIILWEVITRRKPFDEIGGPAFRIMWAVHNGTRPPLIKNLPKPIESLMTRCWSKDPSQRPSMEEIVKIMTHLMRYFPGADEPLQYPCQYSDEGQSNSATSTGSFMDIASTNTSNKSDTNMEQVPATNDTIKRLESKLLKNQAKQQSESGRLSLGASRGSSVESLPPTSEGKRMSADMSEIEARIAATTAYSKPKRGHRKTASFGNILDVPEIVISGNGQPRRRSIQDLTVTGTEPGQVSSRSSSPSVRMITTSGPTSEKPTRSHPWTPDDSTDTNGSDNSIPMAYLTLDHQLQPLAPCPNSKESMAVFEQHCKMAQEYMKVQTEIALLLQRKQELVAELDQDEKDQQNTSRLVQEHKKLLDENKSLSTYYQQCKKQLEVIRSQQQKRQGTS

T28 sequence (P57058 whole entry): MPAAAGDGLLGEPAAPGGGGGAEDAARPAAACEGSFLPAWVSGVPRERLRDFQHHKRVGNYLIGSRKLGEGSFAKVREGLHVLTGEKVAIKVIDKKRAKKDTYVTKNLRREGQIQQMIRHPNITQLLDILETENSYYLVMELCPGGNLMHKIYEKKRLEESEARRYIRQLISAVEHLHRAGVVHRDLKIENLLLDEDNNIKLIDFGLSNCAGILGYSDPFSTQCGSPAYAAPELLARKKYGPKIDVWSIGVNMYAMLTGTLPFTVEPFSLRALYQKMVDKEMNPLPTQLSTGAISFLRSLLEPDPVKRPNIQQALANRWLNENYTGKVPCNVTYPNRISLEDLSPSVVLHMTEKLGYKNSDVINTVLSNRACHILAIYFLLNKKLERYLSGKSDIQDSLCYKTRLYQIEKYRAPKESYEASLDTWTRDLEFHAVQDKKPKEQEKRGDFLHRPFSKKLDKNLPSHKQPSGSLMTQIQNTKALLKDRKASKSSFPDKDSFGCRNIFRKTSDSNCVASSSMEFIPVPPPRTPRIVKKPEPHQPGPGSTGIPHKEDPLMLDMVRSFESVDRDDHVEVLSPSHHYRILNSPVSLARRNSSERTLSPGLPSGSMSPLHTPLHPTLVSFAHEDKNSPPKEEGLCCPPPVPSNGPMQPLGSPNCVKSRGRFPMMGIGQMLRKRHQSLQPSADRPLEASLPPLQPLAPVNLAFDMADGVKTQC
T20 sequence (Q9H422 whole entry): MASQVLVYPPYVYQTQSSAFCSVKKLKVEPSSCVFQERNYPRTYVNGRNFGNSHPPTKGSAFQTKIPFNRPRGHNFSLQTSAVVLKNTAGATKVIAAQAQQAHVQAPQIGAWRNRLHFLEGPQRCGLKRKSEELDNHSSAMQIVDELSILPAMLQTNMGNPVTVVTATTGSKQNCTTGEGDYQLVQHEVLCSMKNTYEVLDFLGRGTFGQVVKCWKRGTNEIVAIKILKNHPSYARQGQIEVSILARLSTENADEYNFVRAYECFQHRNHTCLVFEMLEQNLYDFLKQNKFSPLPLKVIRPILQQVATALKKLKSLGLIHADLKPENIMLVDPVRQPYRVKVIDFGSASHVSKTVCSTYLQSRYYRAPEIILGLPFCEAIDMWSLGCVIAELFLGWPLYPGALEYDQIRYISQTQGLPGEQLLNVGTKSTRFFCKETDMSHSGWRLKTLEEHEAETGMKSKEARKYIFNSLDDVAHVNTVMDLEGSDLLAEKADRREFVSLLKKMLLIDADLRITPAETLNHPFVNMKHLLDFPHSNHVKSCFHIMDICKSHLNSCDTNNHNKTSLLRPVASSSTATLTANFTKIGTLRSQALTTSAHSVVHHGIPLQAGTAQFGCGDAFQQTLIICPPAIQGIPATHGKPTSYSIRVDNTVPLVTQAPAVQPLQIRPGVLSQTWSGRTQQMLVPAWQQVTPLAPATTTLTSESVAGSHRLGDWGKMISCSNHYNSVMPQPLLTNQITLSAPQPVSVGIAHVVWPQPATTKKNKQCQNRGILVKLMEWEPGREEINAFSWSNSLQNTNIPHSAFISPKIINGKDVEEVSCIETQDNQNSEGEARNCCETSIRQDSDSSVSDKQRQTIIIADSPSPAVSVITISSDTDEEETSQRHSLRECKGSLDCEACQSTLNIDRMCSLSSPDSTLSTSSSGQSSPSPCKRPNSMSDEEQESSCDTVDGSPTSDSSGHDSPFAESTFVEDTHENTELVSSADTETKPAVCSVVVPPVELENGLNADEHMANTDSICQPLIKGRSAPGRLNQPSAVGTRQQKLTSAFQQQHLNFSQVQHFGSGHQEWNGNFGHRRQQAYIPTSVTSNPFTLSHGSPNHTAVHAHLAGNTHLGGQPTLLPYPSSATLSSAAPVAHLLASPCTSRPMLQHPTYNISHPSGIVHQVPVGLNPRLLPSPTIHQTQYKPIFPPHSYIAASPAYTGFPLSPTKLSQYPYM
T7 sequence (O75582 388-802 limits assumed): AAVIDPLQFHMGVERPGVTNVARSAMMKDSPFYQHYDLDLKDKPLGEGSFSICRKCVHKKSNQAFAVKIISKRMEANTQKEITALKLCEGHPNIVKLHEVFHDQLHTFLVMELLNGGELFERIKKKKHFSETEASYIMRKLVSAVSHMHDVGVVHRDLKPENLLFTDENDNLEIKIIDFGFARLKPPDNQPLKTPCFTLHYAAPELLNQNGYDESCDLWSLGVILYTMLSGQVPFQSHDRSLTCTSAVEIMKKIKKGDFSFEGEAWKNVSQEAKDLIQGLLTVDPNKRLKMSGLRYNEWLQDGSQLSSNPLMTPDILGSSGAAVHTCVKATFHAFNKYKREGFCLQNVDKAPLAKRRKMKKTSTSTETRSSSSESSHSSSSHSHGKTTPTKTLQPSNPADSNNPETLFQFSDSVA
T14 sequence (Q9H3Y6 whole entry): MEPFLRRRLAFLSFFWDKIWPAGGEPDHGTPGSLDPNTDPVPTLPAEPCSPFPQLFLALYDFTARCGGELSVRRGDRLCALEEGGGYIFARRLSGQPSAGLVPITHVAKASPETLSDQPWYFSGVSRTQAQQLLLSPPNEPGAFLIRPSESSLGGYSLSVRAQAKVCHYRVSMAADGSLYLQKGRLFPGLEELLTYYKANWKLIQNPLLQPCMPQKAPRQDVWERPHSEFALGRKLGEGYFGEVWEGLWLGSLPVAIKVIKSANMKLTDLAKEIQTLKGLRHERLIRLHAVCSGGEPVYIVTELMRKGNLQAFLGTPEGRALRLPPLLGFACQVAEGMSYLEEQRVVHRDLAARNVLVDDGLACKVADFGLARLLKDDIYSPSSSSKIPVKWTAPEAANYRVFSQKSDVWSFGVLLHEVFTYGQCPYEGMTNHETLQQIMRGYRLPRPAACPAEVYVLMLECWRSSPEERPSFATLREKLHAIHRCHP
T30 sequence (Q9UL54 whole entry): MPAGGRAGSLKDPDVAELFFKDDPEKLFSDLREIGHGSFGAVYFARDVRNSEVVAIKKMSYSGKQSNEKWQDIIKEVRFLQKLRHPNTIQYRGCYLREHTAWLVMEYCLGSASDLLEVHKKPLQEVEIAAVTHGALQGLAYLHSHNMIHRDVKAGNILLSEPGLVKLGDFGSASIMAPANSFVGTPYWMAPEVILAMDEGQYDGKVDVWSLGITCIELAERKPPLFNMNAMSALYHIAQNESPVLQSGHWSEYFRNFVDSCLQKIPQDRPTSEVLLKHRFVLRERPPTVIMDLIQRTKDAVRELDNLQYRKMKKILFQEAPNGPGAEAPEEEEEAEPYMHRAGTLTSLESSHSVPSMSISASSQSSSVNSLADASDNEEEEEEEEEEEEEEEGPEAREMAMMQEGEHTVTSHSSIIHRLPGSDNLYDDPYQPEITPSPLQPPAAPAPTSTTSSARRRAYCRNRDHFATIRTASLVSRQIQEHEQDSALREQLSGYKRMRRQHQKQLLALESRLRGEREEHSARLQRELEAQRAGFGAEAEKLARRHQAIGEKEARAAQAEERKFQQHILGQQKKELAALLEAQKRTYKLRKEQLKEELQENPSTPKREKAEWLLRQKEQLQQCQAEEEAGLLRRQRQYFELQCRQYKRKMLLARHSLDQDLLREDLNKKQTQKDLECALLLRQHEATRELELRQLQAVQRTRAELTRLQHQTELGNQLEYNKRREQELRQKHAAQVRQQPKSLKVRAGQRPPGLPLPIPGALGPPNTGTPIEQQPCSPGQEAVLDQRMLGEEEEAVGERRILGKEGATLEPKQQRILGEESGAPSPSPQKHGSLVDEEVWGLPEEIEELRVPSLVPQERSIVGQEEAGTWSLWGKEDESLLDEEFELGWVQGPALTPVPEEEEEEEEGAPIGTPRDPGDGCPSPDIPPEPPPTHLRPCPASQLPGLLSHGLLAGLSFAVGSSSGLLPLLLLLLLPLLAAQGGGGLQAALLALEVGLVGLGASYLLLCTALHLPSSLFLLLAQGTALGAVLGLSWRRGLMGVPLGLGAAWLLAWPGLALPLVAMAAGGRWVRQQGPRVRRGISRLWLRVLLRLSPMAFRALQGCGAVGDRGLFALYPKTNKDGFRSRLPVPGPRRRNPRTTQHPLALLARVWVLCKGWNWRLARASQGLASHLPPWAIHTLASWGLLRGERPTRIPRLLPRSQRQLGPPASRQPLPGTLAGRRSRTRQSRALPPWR
T39 sequence (P50613 whole entry): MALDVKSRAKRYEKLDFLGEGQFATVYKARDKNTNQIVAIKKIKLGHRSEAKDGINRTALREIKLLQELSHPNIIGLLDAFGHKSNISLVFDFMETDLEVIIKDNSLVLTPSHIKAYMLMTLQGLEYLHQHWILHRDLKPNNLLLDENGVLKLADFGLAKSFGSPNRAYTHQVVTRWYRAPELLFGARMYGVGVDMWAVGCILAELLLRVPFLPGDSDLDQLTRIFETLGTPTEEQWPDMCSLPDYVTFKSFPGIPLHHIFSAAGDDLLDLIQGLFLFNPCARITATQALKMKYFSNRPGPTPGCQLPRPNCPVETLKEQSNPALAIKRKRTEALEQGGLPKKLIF

Which results are given for `Cc1ccc(-n2cc(COc3cccc4cnc(Nc5cccc(Cl)c5)nc34)nn2)c([N+](=O)[O-])c1` [DB18]?
remaining binding at 1 µM (CAMKK2): 100%; remaining binding at 1 µM (IKK-beta): 100%; remaining binding at 1 µM (CAMK4): 100%; remaining binding at 1 µM (IKK-epsilon): 96%; remaining binding at 1 µM (QSK): 96%; remaining binding at 1 µM (CSK): 100%; remaining binding at 1 µM [1]: 100%; remaining binding at 1 µM (CAMK1G): 100%; remaining binding at 1 µM (MYLK4): 94%; remaining binding at 1 µM (YANK1): 100%; remaining binding at 1 µM (STK16): 41%; remaining binding at 1 µM (MET): 95%; remaining binding at 1 µM (BIKE): 99%; remaining binding at 1 µM (SRMS): 98%; remaining binding at 1 µM (BRSK1): 100%; remaining binding at 1 µM (AAK1): 100%; remaining binding at 1 µM (PRKCI): 96%; remaining binding at 1 µM [2]: 100%; remaining binding at 1 µM (GSK3A): 100%; remaining binding at 1 µM (HIPK3): 46%; remaining binding at 1 µM (ERBB2): 57%; remaining binding at 1 µM (MAST1): 79%; remaining binding at 1 µM (IGF1R): 100%; remaining binding at 1 µM (CDK4-cyclinD1): 93%; remaining binding at 1 µM (CSNK1A1L): 100%; remaining binding at 1 µM (GCN2(Kin.Dom.2,S808G)): 100%; remaining binding at 1 µM (MAP3K4): 100%; remaining binding at 1 µM (HUNK): 90%; remaining binding at 1 µM (MYLK2): 100%; remaining binding at 1 µM (TAOK2): 98%; remaining binding at 1 µM (BLK): 100%; remaining binding at 1 µM (SRPK3): 100%; remaining binding at 1 µM (SYK): 97%; remaining binding at 1 µM (RET(M918T)): 100%; remaining binding at 1 µM (PRKD3): 100%; remaining binding at 1 µM (FYN): 93%; remaining binding at 1 µM [3]: 100%; remaining binding at 1 µM (EGFR): 97%; remaining binding at 1 µM (CDK7): 100%; remaining binding at 1 µM (DAPK2): 100%; remaining binding at 1 µM (MAPKAPK5): 99%; remaining binding at 1 µM (TAK1): 100%
